Molecular target: T1, EphA3 (Homo sapiens, UniProt P29320)
T1 construct: expressed in transfected cells; host or cells: HEK 293
T1 sequence (P29320 21-983): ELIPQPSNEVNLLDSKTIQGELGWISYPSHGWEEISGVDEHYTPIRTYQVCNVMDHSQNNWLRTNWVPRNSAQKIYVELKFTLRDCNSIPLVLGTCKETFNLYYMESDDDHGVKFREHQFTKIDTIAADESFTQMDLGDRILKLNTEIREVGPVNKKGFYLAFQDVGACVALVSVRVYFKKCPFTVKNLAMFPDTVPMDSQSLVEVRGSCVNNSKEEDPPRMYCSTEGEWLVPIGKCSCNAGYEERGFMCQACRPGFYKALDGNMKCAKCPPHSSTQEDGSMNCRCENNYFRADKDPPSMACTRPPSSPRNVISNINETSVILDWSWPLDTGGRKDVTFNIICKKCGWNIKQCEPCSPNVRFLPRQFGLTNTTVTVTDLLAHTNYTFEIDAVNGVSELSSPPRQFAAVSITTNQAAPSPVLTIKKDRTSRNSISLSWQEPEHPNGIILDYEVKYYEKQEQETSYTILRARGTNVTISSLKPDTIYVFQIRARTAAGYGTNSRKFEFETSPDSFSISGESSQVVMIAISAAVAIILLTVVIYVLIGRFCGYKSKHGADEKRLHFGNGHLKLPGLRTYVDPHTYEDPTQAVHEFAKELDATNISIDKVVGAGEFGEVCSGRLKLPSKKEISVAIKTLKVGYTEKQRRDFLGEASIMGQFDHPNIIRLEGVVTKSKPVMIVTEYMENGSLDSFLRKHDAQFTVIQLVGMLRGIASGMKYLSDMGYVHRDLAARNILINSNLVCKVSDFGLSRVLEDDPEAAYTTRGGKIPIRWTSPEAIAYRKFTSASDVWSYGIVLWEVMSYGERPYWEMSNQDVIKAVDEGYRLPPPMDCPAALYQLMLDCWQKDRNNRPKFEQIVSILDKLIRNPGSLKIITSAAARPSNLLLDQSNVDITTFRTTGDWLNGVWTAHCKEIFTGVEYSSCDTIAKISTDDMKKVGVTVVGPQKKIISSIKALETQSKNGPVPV
Assay: Eph receptor activation in HEK 293 cells overexpressing EphA3
Assay type: cell-based
Details: HEK 293 cells overexpressing EphA3, compared to EphA2 and EphA4
Experimental: Cells were plated in 24-well dishes at a density of 100,000 cells/well and grown for 24 hours prior to stimulation with appropriate compounds and ephrins for the given amounts of time. Compounds were prepared in DMSO at 500 times the final concentrations and 0.2% DMSO was used as vehicle control. Following treatment, cells were lysed directly in SDS Gel Loading Buffer and immunoblotted as described previously. […] For this purpose, HEK 293 cell lines overexpressing EphA1, EphA2, EphA3, EphA4, and EphB3 kinases were utilized.

## COc1cc2nc(N3CCN(C(=O)C4COc5ccccc5O4)CC3)nc(N)c2cc1OC (stereo not shown) [doxazosin]
  EphA3 activation, Eph receptor panel: weak

— patent publication US11814372B2, “Agonists of EPHA and their uses” (CASE WESTERN RESERVE UNIVERSITY, priority 2017, dated 2023)
